Consider 18 molecules from patent publication US10975068B2, “6-aminopyridin-3-yl thiazoles as modulators of RORγT” (Janssen Pharmaceutica NV, priority 2016, dated 2021).

Like-named read-outs stand apart in the source and are kept apart here.

In assay [1] the target is full-length human RORγt (Homo sapiens (Human), UniProt P51449). Briefly: RORγt (full-length human) reporter assay, Conditions B or C. In kind it is cell-based. As to conditions: for inhibition at 3 µM: at 3 μM compound concentration, read-out: RORγt (FL) Reporter Assay B or C, % inhibition; for RORγt (FL) Reporter Assay B or C, % inhibition (value marked *): marked *: footnote not given. The essentials:
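HEK293T cells transiently co-transfected with GAL4-DBD–full-length human RORγt (nt 142-1635, NM_001001523.1) plus GAL4-firefly and CMV-Renilla luciferase reporters; compounds added 4-6 h post-transfection for 16-20 h in 1.3% FBS, 0.1% DMSO. Firefly signal normalized to DMSO and saturating reference compound, then to Renilla; IC50 from concentration plots.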
For orientation: In a reporter assay the amount or activity of a reporter protein is the signal.

For assay [2], the target named is human RORγt ligand binding domain (RORγt LBD) (Homo sapiens (Human), UniProt P51449). Briefly: RORγt ThermoFluor® assay (thermal shift binding). The following applies: read-out: ThermoFluor® Assay, Kd. Summed up: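 His-tagged human RORγt LBD (0.065 mg/mL) with 60 μM 1,8-ANS in 100 mM Hepes pH 7.0, 10 mM NaCl, 2.5 mM GSH, 0.002% Tween-20 was heated at 1 °C/min.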
Chain of human RORγt ligand binding domain (RORγt LBD) (P51449 other isoform, or with tags, fused parts or gaps): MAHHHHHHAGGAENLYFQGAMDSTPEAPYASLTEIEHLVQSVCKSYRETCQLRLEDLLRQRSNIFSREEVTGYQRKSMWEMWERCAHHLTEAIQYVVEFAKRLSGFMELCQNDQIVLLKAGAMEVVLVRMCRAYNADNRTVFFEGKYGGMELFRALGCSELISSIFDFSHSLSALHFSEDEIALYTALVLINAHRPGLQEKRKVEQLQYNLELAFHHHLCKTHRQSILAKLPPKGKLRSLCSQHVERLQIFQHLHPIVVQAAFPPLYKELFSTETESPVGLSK
Background: In DSF a fluorescence change marks the thermal transition of the protein.

[3] abbreviates: read-out: RORγt (FL) Reporter Assay B or C, IC50.
[4] abbreviates: Conditions B or C, read-out: RORγt (FL) Reporter Assay B or C, IC50.

Chain of full-length human RORγt (P51449 other isoform, or with tags, fused parts or gaps): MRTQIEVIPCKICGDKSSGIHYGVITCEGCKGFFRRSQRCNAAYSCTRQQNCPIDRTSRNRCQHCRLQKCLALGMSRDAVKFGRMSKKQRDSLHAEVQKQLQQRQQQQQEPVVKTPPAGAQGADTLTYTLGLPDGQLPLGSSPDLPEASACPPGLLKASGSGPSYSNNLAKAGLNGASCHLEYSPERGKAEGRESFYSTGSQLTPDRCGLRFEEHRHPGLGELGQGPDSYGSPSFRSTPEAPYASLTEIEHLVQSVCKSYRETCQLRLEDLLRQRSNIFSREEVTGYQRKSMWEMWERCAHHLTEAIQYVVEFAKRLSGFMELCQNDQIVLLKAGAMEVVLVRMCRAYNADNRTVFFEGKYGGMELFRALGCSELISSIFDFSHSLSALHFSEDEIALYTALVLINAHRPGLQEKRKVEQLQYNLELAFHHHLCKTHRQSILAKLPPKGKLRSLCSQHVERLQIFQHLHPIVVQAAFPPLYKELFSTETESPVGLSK

Turning to `C[C@H]1CCCN1C(=O)c1nc(C(=O)N2CC[C@@H](O)C2)sc1-c1cnc(NC(C)(C)C)cc1C(F)(F)F` [Example 349, [5-[6-(tert-Butylamino)-4-(trifluoromethyl)-3-pyridyl]-2-[(3R)-3-hydroxypyrrolidine-1-carbonyl]thiazol-4-yl]-[(2S)-2-methylpyrrolidin-1-yl]methanone], the inhibition at 3 µM in assay [1] was found to be 105%. The IC50 in assay [1] (setting [3]) was found to be 0.063 µM. The dissociation constant (Kd) in assay [2] amounted to 0.011 µM.
In the same order, the values of `C[C@H]1CC(F)(F)CN1C(=O)c1nc(C(=O)NC2CCS(=O)(=O)CC2)sc1-c1cnc(NC2(C)CCC2)cc1C(F)F` [Example 328, (S)-4-(4,4-Difluoro-2-methylpyrrolidine-1-carbonyl)-5-(4-(difluoromethyl)-6-((1-methylcyclobutyl)amino)pyridin-3-yl)-N-(1,1-dioxidotetrahydro-2H-thiopyran-4-yl)thiazole-2-carboxamide] are 87%, 0.051 µM and 0.00031 µM.
In the same order, the values of `CC[C@H](Nc1cc(C(F)F)c(-c2sc(C(=O)NC3CCOCC3)nc2C(=O)N2CCC[C@@H]2C)cn1)C(F)(F)F` [Example 394, 5-[4-(Difluoromethyl)-6-[[(1S)-1-(trifluoromethyl)propyl]amino]-3-pyridyl]-4-[(2S)-2-methylpyrrolidine-1-carbonyl]-N-tetrahydropyran-4-yl-thiazole-2-carboxamide] are 114%, 0.034 µM and 0.002 µM.
Consider `C[C@H](NC(=O)c1nc(C(=O)N2CC(F)(F)C[C@@H]2C)c(-c2cnc(NC(C)(C)C)cc2C(F)F)s1)C(C)(C)O` [Example 257, 5-[6-(tert-Butylamino)-4-(difluoromethyl)-3-pyridyl]-4-[(2S)-4,4-difluoro-2-methyl-pyrrolidine-1-carbonyl]-N-[(1S)-2-hydroxy-1,2-dimethyl-propyl]thiazole-2-carboxamide], for which, in assay [1], the inhibition at 3 µM is 98%. Besides, in assay [1] (setting [3]), the IC50 stood at 0.031 µM. Moreover, the Kd in assay [2] amounted to 0.0018 µM.
Consider `C[C@H]1CCCN1C(=O)c1nc(C(=O)N[C@H](C)C(C)(C)O)sc1-c1cnc(NC(C)(C)C)cc1C(F)F` [Example 269, 5-[6-(tert-Butylamino)-4-(difluoromethyl)-3-pyridyl]-N-[(1R)-2-hydroxy-1,2-dimethyl-propyl]-4-[(2S)-2-methylpyrrolidine-1-carbonyl]thiazole-2-carboxamide], for which the inhibition at 3 µM in assay [1] was 101%. In addition, in assay [1] (setting [3]), the IC50 was 0.0082 µM. In addition, the Kd in assay [2] stood at 0.0049 µM.
Consider `C[C@H]1CCCN1C(=O)c1nc(C(=O)NCC(C)(C)O)sc1-c1cnc(NC(C)(C)C2CC2)cc1C(F)F` [Example 105, (S)-5-(6-((2-Cyclopropylpropan-2-yl)amino)-4-(difluoromethyl)pyridin-3-yl)-N-(2-hydroxy-2-methylpropyl)-4-(2-methylpyrrolidine-1-carbonyl)thiazole-2-carboxamide], for which the “RORγt (FL) Reporter Assay B or C, % inhibition (value marked *)” value (shortened to “RORγt … % inhibition (value marked *)”) in assay [1] (Conditions B or C) is reported as 116* %. The IC50 in assay [1] (setting [4]) was 0.015 µM. Also, the Kd in assay [2] turned out to be 0.002 µM.
Taken in the same sequence, the figures for `CC(C)(O)CNC(=O)c1nc(C(=O)N2C3CCC2CC3)c(-c2cnc(NC3CCCC3)cc2C(F)(F)F)s1` [Example 53, 4-((1s,4s)-7-Azabicyclo[2.2.1]heptane-7-carbonyl)-5-(6-(cyclopentylamino)-4-(trifluoromethyl)pyridin-3-yl)-N-(2-hydroxy-2-methylpropyl)thiazole-2-carboxamide] were 109* %, 0.023 µM and 0.0058 µM.
For `C[C@H](O)[C@H](C)NC(=O)c1nc(C(=O)N2CCC[C@@H]2C)c(-c2cnc(NC(C)(C)C)cc2C(F)(F)F)s1` (relative stereo) [Example 236, 5-(6-(tert-Butylamino)-4-(trifluoromethyl)pyridin-3-yl)-N-((2S*,3S*)-3-hydroxybutan-2-yl)-4-((S)-2-methylpyrrolidine-1-carbonyl)thiazole-2-carboxamide], in assay [1] (Conditions B or C), the “RORγt … % inhibition (value marked *)” value is 122* %. Besides, the IC50 in assay [1] (setting [4]) was 0.047 µM. For the same molecule, the Kd in assay [2] came out at 0.0016 µM.
In the case of `C[C@H](Nc1cc(C(F)F)c(-c2sc(C(=O)N[C@@H]3COC[C@H]3O)nc2C(=O)N2CCC[C@@H]2C)cn1)C(F)(F)F` [Example 215, 5-(4-(Difluoromethyl)-6-(((1S)-2,2,2-trifluoro-1-methyl-ethyl)amino)-3-pyridyl)-N-((3R,4S)-4-hydroxytetrahydrofuran-3-yl)-4-((2S)-2-methylpyrrolidine-1-carbonyl)thiazole-2-carboxamide], the “RORγt … % inhibition (value marked *)” value in assay [1] (Conditions B or C) is listed as 107* %. Besides, the IC50 in assay [1] (setting [4]) is 0.1 µM. Besides, in assay [2], the Kd stood at 0.012 µM.
As for `C[C@H]1CCCN1C(=O)c1nc(C(=O)N2CC(C)(O)C2)sc1-c1cnc(NC(C)(C)C)cc1C(F)F` [Example 149, [5-[6-(tert-Butylamino)-4-(difluoromethyl)-3-pyridyl]-2-(3-hydroxy-3-methyl-azetidine-1-carbonyl)thiazol-4-yl]-[(2S)-2-methylpyrrolidin-1-yl]methanone], the “RORγt … % inhibition (value marked *)” value in assay [1] (Conditions B or C) is recorded as 108* %. In assay [1] (setting [4]), the IC50 turned out to be 0.1 µM. Besides, the Kd in assay [2] was 0.02 µM.
In turn, `O=C(N[C@H]1CC[C@H](O)C1)c1nc(C(=O)N2C3CCC2CC3)c(-c2cnc(N[C@@H](C3CC3)C(F)(F)F)cc2C(F)F)s1` [Example 441, 4-((1s,4s)-7-Azabicyclo[2.2.1]heptane-7-carbonyl)-5-[6-[[(1S)-1-cyclopropyl-2,2,2-trifluoro-ethyl]amino]-4-(difluoromethyl)-3-pyridyl]-N-[(1S,3S)-3-hydroxycyclopentyl]thiazole-2-carboxamide] showed an IC50 in assay [1] (RORγt (FL) Reporter Assay B or C, IC50) of 0.036 µM. The inhibition at 3 µM in assay [1] is 106%. Besides, the Kd in assay [2] stood at 0.00047 µM.
In the case of `C[C@H]1CCCN1C(=O)c1nc(C(=O)NCC2(O)CC2)sc1-c1cnc(NC2CCCC2)cc1C(F)F` [Example 2, (S)-5-(6-(Cyclopentylamino)-4-(difluoromethyl)pyridin-3-yl)-N-((1-hydroxycyclopropyl)methyl)-4-(2-methylpyrrolidine-1-carbonyl)thiazole-2-carboxamide], in assay [1] (Conditions B or C), the “RORγt … % inhibition (value marked *)” value is listed as 95* %. For the same molecule, the IC50 in assay [1] (setting [4]) is 0.077 µM. Further, in assay [2], the Kd worked out at 0.04 µM.
Turning to `C[C@H]1CCCN1C(=O)c1nc(C(=O)N[C@@H]2CC[C@H]2O)sc1-c1cnc(NC(C)(C)C)cc1C(F)F` (relative stereo) [Example 403, 5-(6-(tert-Butylamino)-4-(difluoromethyl)pyridin-3-yl)-N-(1R*,2R*)-2-hydroxycyclobutyl)-4-((S)-2-methylpyrrolidine-1-carbonyl)thiazole-2-carboxamide], in assay [1], the inhibition at 3 µM turned out to be 108%. Besides, the IC50 in assay [1] (setting [3]) was found to be 0.036 µM. Besides, the Kd in assay [2] was determined as 0.0045 µM.
With `CC[C@H](Nc1cc(C(F)F)c(-c2sc(C(=O)N[C@H]3C[C@H](O)C3)nc2C(=O)N2CC(F)(F)C[C@@H]2C)cn1)C(F)(F)F` [Example 449, 4-((S)-4,4-Difluoro-2-methylpyrrolidine-1-carbonyl)-5-(4-(difluoromethyl)-6-(((S)-1,1,1-trifluorobutan-2-yl)amino)pyridin-3-yl)-N-((1R,3S)-3-hydroxycyclobutyl)thiazole-2-carboxamide], the inhibition at 3 µM in assay [1] came out at 108%. In assay [1] (setting [3]), the IC50 came to 0.021 µM. Also, the dissociation constant (Kd) in assay [2] stood at 0.0021 µM.
`C[C@H]1CCCN1C(=O)c1nc(C(=O)NC2COC2)sc1-c1cnc(NC(C)(C)C)cc1C(F)(F)F` [Example 259, 5-[6-(tert-Butylamino)-4-(trifluoromethyl)-3-pyridyl]-4-[(2S)-2-methylpyrrolidine-1-carbonyl]-N-(oxetan-3-yl)thiazole-2-carboxamide]: the inhibition at 3 µM in assay [1] is 101%. The concentration for half-maximal inhibition (IC50) in assay [1] (setting [3]) stood at 0.025 µM. Further, the Kd in assay [2] worked out at 0.003 µM.
Turning to `CC[C@H](Nc1cc(C(F)F)c(-c2sc(C(=O)N[C@H]3CCC[C@@H]3O)nc2C(=O)N2C3CCC2CC3)cn1)C(F)(F)F` [Example 210, 4-((1s,4s)-7-Azabicyclo[2.2.1]heptane-7-carbonyl)-5-(4-(difluoromethyl)-6-(((1S)-1-(trifluoromethyl)propyl)amino)-3-pyridyl)-N-((1S,2S)-2-hydroxycyclopentyl)thiazole-2-carboxamide], the “RORγt … % inhibition (value marked *)” value in assay [1] (Conditions B or C) is 105* %. Further, the IC50 in assay [1] (setting [4]) was 0.021 µM. Besides, the Kd in assay [2] was 0.00069 µM.
In the same order, the values of `C[C@H]1CCCN1C(=O)c1nc(C(=O)NCC(C)(C)O)sc1-c1cnc(N[C@H](C)C(F)(F)F)cc1C(F)(F)F` [Example 54, N-(2-Hydroxy-2-methylpropyl)-4-((S)-2-methylpyrrolidine-1-carbonyl)-5-(4-(trifluoromethyl)-6-(((R)-1,1,1-trifluoropropan-2-yl)amino)pyridin-3-yl)thiazole-2-carboxamide] are 109* %, 0.046 µM and 0.012 µM.
On to `CC[C@H](Nc1cc(C(F)F)c(-c2sc(C(=O)N[C@@H](C)C(C)(C)O)nc2C(=O)N2CC(F)(F)C[C@@H]2C)cn1)C(F)(F)F` [Example 246, 4-[(2S)-4,4-Difluoro-2-methyl-pyrrolidine-1-carbonyl]-5-[4-(difluoromethyl)-6-[[(1S)-1-(trifluoromethyl)propyl]amino]-3-pyridyl]-N-[(1S)-2-hydroxy-1,2-dimethyl-propyl]thiazole-2-carboxamide], for which, in assay [1] (Conditions B or C, marked ***: footnote not given), the “RORγt (FL) Reporter Assay B or C, % inhibition (value marked ***)” value is 112*** %. Moreover, the half-inhibitory concentration (IC50) in assay [1] (setting [4]) was 0.011 µM. For the same molecule, in assay [2], the Kd came out at 0.0013 µM.

Usually inhibition stands for the relative decrease from the control value, in per cent. As a reminder, the IC50 is the concentration needed to halve the response being measured. In general, Kd refers to a measure of binding affinity in units of concentration.
